Experimental findings from patent publication US20250195498A1, “INHIBITOR OF CELLULAR PURINE NUCLEOTIDE SALVAGE PATHWAY ENZYME FOR USE IN THE TREATMENT AND/OR PREVENTION OF HELICOBACTER PYLORI INFECTION AND/OR DISEASE ASSOCIATED WITH SUCH INFECTION AND PHARMACEUTICAL COMPOSITION COMPRISING THE SAME” (UNIWERSYTET WARSZAWSKI, priority 2022, published 2025) are described below.

Values after ≈ are worked out from the molar mass of the structure shown. Values joined by “and” are separate entries in the source; they are usually repeats but may differ in a detail not shown here. Identical values can stand only once. Like-named read-outs stand apart in the source and are kept apart here.

One test relates to H. pylori strain 26695. Put plainly: Growth curve method / MIC in liquid culture, strain 26695. The format is cell-based, Helicobacter pylori. The conditions noted are these: strain 26695; for MIC: read-out: MIC; for % inhibition of H. pylori cell cultures at maximum inhibitor solubility: at maximum solubility in 3.5% DMSO; for growth inhibition: 200 μM, partially precipitated. The method, then: The representative PNP inhibitor from H. pylori included in this study was immucillin A. The experiment was conducted using the growth curve method (two-fold serial dilutions in liquid medium). The tested H. pylori strains were cultured in Petri dishes with BHI solid medium supplemented with 10% FBS and 1% H. pylori Selective Supplement antibiotic kit, in anaerostats under microaerophilic conditions (5% 02, 10% CO2, 85% N2) at 37° C. for 3 days. Liquid culture of H. pylori was conducted overnight with shaking at 37° C. under microaerophilic conditions in BHI medium supplemented with 10% FBS and 1% H. pylori Selective Supplement antibiotic kit. Subsequently, for the essential experiment of determining the minimum inhibitory concentration (MIC), double strengthened liquid BHI medium was prepared, that is, supplemented with 20% FBS and a 2% set of H. pylori Selective Supplement antibiotics.
Bacterial proliferation inhibition experiments were carried out in 24-deep-well 2 ml flat-bottomed plates at a solution volume per well of 0.5 ml. In a single well, double strengthened (relative to the concentration planned for testing) solutions of the test inhibitor and double strengthened liquid BHI medium inoculated with H. pylori (10^4-10^5 CFU/ml in the final volume in the well, corresponding to the optical density of the culture OD600=0.05) were mixed together in a 1:1 ratio.
Kanamycin at a concentration of 25 μg/ml (Irie et al., 1997) was used as a positive control, while Mili-Q deionized water and BHI medium not inoculated with bacteria were used as negative controls. Plates were shaken at 37° C., under microaerophilic conditions. […] After 24 hours, the OD600 of samples containing the negative control, i.e. with Mili-Q deionized water, was about 1.2-1.4, corresponding to a bacterial concentration of about […].
In addition, the method proposed by Knezevic et al. (2018) was used to check whether the observed OD600 was from live bacterial cells. For this purpose, an equal volume of Christensen's double strength urea broth (that is, containing twice the concentration of all components) was added to the wells after incubation, and the plates were additionally incubated for 4 hours in an oxygen atmosphere at 37° C. During incubation, in wells with urease produced by live bacteria, urea is converted to ammonia and carbon dioxide, changing the pH of the solution and thus the colour of the phenol red indicator contained in the medium (from orange to purple).
All experiments were performed in triplicate.
The experiments were carried out using the growth curve method as described in Example 3, and the results obtained for two of the compounds tested are shown in FIG. 5. As the water solubility of the compounds tested, with the exception of 2,6-diCl-Pu, is relatively poor, two experiments were carried out: the first with the maximum concentration possible under the experimental conditions in aqueous solution with a small admixture of DMSO, and the second with higher concentrations that led to partial precipitation of the compound.
The antibacterial activity of two compounds, mefloquine (in the form of hydrochloride) and quinine, described in the literature as potent in vitro inhibitors of the PNP enzyme from Plasmodium falciparum (Dziekan et al., 2019), was tested. Using a two-fold serial dilution method in liquid medium (as described in Example 3), the MIC values for mefloquine and quinine were determined against clinical H. pylori strains resistant to MTZ, CLR and MTZ+CLR (M26, M91, M92 and M93), as well as the reference H. pylori strain 26695. Four clinical H. pylori strains isolated from adults, from primary infections (the subjects had never previously been treated against H. pylori infection) were tested. These strains come from the collection of the Department of Microbiology of the Medical University of Wroclaw and were obtained due to collaboration with Prof. Grażyna Gościniak, MD, PhD. […]

Test [1] has as its target T1, PNP from H. pylori strain 26695 (Helicobacter pylori, UniProt P56463).
T1 construct: made in house; host or cells: E. coli
The experiment in a line: Inhibition of PNP from H. pylori, spectrophotometric phosphorolysis assay. The format is biochemical. An excerpt: The specific activity of PNP is usually determined using inosine as a substrate, in an assay in which the phosphorolysis product, hypoxanthine, is oxidized to uric acid in a reaction catalysed by xanthine oxidase. However, in the inhibition assay of PNP from H. pylori strain 26695, 7-methylguanosine (m^7Guo) and guanosine (Guo) were used as nucleoside substrates to avoid potential inhibition of xanthine oxidase by the test compounds. Phosphorolysis of these two substrates can be observed using a direct spectrophotometric method in a known manner.
Enzymatic activity was studied in a quartz cuvette with an optical path length of 1 cm or 0.5 cm. The absorbance of the reaction mixture, at the observation wavelength, never exceeded 1.2. The reaction volume was 1 ml or 1.4 ml in cuvettes with optical path lengths of 1 cm and 0.5 cm, respectively. The reaction mixture contained 50 mM Hepes/NaOH buffer, pH 7.0, 50 mM phosphate buffer, pH 7.0 (unless otherwise indicated), nucleoside substrate and inhibitor (with the latter not added to the reference/control reactions). Reactions were usually initiated by adding the enzyme to a cuvette containing the other reaction components. However, in cases where possible slow formation of an inhibitor-enzyme complex was checked, a second variant was also used involving incubation of the enzyme in a reaction mixture containing the inhibitor but lacking the substrate, 7-methylguanosine, and initiation of the reaction by adding this substrate.
In order to determine the inhibition constants and determine the molecular mechanism of inhibition, equations describing different mechanisms of inhibition were fitted to the obtained experimental data. GraphPad Prism 8 program was used. The model best describing the obtained data was selected based on the sum of squares of deviations using the F test for models with different number of parameters and the Akaike criterion (AIC) for models with the same number of parameters.
The following equations were used to describe competitive inhibition, characterized by the inhibition constant Kic, [1], uncompetitive, characterized by the inhibition constant Kiu, [2], non-competitive, characterized by the inhibition constant Kin, [3], and mixed, characterized by the inhibition constants Kiu and Kic, [4] (Segel, 1993):
The last equation can also be represented in the following form, as used by GraphPad Prism software, where Kiu=alpha Kic:
Immucillin A was chosen as the most promising one for potential pharmacological use in combating H. pylori infection because immucillin A has an amino substituent at position 6 of the 9-dazapurine ring, while PNP found in the human body requires a substituent at this position having electron-pairs-hydrogen bond acceptors, such as a substituent in the form of a keto group, to strongly bind the ligand. According to the invention, it is therefore believed that immucillin A will not interact with the host PNP, and thus allow selective inhibition of the PNP from H. pylori. Using the methods described above, the effect of immucillin A on the rate of the 7-methylguanosine (m^7Guo) phosphorolysis reaction catalysed by PNP from H. pylori was examined (FIG. 1). Since it is known (Schramm, 2018) that immucillins form a strongly bound complex with the enzyme relatively slowly, reactions were initiated by adding the substrate, m^7Guo, to a cuvette in which the enzyme was incubated with the inhibitor, as described in Example 1.
Data analysis was also performed as described in this Example. The range of substrate concentrations tested was 10-200 μM or 10-280 μM (shown in FIG. 4), and the range of inhibitor concentrations was chosen according to the observed degree of inhibition of the reaction, in order to obtain a significant degree of inhibition that allows determination of the inhibition mechanism and determination of inhibition constants (see FIG. 4). […]

Setting [2] is: 7-methylguanosine substrate, 25° C., pH 7.0, 50 mM phosphate, mixed type model, read-out: Kic.
[3] abbreviates: 7-methylguanosine substrate, 25° C., pH 7.0, 50 mM phosphate, mixed type model, read-out: Kiu.
[4] abbreviates: 7-methylguanosine substrate, 25° C., pH 7.0, 50 mM phosphate, non-competitive model, read-out: Kin.
Setting [5] is: 7-methylguanosine substrate, mixed type model.
[6] abbreviates: 7-methylguanosine substrate, 25° C., pH 7.0, 50 mM phosphate, uncompetitive model, read-out: Kiu.
[7] abbreviates: Helicobacter pylori, inhibitor partially precipitated, actual dissolved concentration lower.

T1 sequence (P56463 whole entry): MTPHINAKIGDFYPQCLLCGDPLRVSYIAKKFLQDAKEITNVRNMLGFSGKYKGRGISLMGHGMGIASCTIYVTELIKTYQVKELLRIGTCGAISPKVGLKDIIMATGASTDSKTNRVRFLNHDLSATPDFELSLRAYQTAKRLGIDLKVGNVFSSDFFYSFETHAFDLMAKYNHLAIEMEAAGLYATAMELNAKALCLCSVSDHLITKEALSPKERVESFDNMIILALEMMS

Usually MIC stands for the least concentration at which growth counts as inhibited. Turning to `Clc1nc(Cl)c2[nH]cnc2n1` [2,6-diCl-Pu, 2,6-dichloropurine], in the test with H. pylori strain 26695 (Helicobacter pylori), the MIC is 473 µg/mL and 2500 µM. Besides, the “% inhibition of H. pylori cell cultures at maximum inhibitor solubility” value (“% inhibition of H. pylori cell cultures” for short) with H. pylori strain 26695 is recorded as 93%.
Take `Clc1nc(Cl)c2[nH]cnc2n1` [2,6-dichloropurine]: the Ki was determined as 20 ± 4.9 µM in test [1] (setting [2]), 23.5 ± 3.5 µM in test [1] (setting [3]) and 22.2 ± 1.4 µM in test [1] (setting [4]). Moreover, the “alpha = Kiu/Kic” value in test [1] (setting [5]) is on record as 1.17 ± 0.44.
Turning to `c1ccc(CSc2ncnc3nc[nH]c23)cc1` [6-benzylthiopurine], the figures for the Ki in test [1] (setting [2]), in test [1] (setting [3]) and in test [1] (setting [4]) were 7.5 ± 1.3 µM, 8.1 ± 0.7 µM and 7.9 ± 0.4 µM, respectively. Further, the “alpha = Kiu/Kic” value in test [1] (setting [5]) worked out at 1.07 ± 0.27.
Usually inhibition stands for the share of the control response that was lost under treatment. In the case of `Clc1nc(OCc2ccccc2)c2[nH]cnc2n1` [6BnO-2Cl-Pu, 6-benzyloxy-2-chloropurine], in the test on H. pylori strain 26695 (Helicobacter pylori, 350 μM (91 μg/ml), inhibitor partially precipitated, read-out: % inhibition of H. pylori cell cultures), the inhibition at 350 µM is 75%. The “% inhibition of H. pylori cell cultures” value with H. pylori strain 26695 worked out at 35%. Further, the Ki in test [1] (setting [2]) is 18.3 ± 7.3 µM; in test [1] (setting [3]), 4.6 ± 0.5 µM; in test [1] (setting [4]) it was 6.5 ± 0.4 µM; in test [1] (setting [6]), 3.8 ± 0.3 µM. For the same compound, the “alpha = Kiu/Kic” value in test [1] (setting [5]) came to 0.25 ± 0.12.
`Clc1nc(SCc2ccccc2)c2[nH]cnc2n1` [6BnS-2Cl-Pu, 6-benzylthio-2-chloropurine]: the MIC in the test with H. pylori strain 26695 (setting [7]) was 69 µg/mL and 250 µM. The “% inhibition of H. pylori cell cultures” value in the test on H. pylori strain 26695 is recorded as 92%. In addition, the Ki is 13.2 ± 10.7 µM in test [1] (setting [2]), 2.1 ± 0.3 µM in test [1] (setting [3]) and 1.8 ± 0.2 µM in test [1] (setting [6]). In addition, the “alpha = Kiu/Kic” value in test [1] (setting [5]) turned out to be 0.16 ± 0.15.
Turning to `OC[C@H]1O[C@@H](n2cnc3c(SCc4ccccc4)nc(Cl)nc32)C[C@@H]1O` [6BnS-2Cl-Pu-9dr, 2-chloro-6-benzylthiopurine-2′-deoxy-9-ribofuranoside], in the test with H. pylori strain 26695, the “growth inhibition” value is “complete growth inhibition”. Also, the “% inhibition of H. pylori cell cultures” value in the test on H. pylori strain 26695 is 5%. Moreover, the Ki in test [1] (setting [2]) came to 6.2 ± 2.4 µM; in test [1] (setting [3]), 2.9 ± 0.5 µM; in test [1] (guanosine as a substrate, mixed type model, read-out: Kic), 12.6 ± 5.7 µM; in test [1] (guanosine as a substrate, mixed type model, read-out: Kiu), 2 ± 0.2 µM. The “alpha = Kiu/Kic” value in test [1] (setting [5]) amounted to 0.47 ± 0.24; in test [1] (guanosine as a substrate, mixed type model), 0.16 ± 0.08.
On to `c1ccc(CSc2ncnc3nc[nH]c23)cc1` [6BnS-Pu, 6-benzylthiopurine], for which the MIC in the test with H. pylori strain 26695 (setting [7]) was 48 µg/mL and 200 µM. Also, in the test on H. pylori strain 26695, the “growth inhibition” value is “Complete inhibition” and the “% inhibition of H. pylori cell cultures” value stood at 83%.
With `NC[C@H]1O[C@H](O[C@H]2[C@H](O)[C@@H](O[C@H]3O[C@H](CO)[C@@H](O)[C@H](N)[C@H]3O)[C@H](N)C[C@@H]2N)[C@H](O)[C@@H](O)[C@@H]1O` [Kanamycin, kanamycin], the inhibition at 52 µM in the test on H. pylori strain 26695 (Helicobacter pylori, kanamycin 25 μg/ml (52 μM), positive control, read-out: % inhibition of H. pylori cell cultures) was 92 to 96%.
Turning to `Nc1ncnc2c([C@@H]3N[C@H](CO)C(O)[C@@H]3O)c[nH]c12` (stereo partly shown) [immucillin A], in the test on H. pylori strain 26695 (Helicobacter pylori), the MIC worked out at 80 µM (≈ 21.2 µg/mL). Also, in test [1], the Ki was 0.0013 ± 0.0002 µM.
